Data on five compounds can be found in ChEMBL document CHEMBL1201862, “PubChem BioAssay data set” (2004).

The structures appear in SMILES notation. Active and inactive are the calls of the source. Some results are limits rather than exact numbers.

For assay [1], the target named is T1, Polyadenylate-binding protein 1 (Homo sapiens, UniProt P11940). Put plainly: PABP1 MLLE–PAM2 interaction inhibitors, dose response, miRNA deadenylation inhibitor project, biochemical, fluorescence polarization, Cy5-PAM2 peptide, secondary (AID 602260). To be noted: read-out: IC50_Mean. It counts as functional.
Assay [2] concerns the target Peroxisome proliferator-activated receptor gamma/Nuclear receptor coactivator 1 (Homo sapiens, UniProt P37231). Put plainly: TR-FRET dose response biochemical High Throughput Screening assay for agonists of the steroid receptor coactivator 1 (SRC-1) recruitment by the peroxisome proliferator-activated receptor gamma (PPAR gamma): non-selective agonists. [Related pubchem assays (depositor defined):AID1300, AID1808, AID504735, AID631]. It counts as protein assay. In general terms: Time-resolved FRET reads energy transfer from a long-lived donor to a nearby acceptor.

The target in assay [3] is Peroxisome proliferator-activated receptor gamma/Nuclear receptor coactivator 3 (Homo sapiens, UniProt P37231). Put plainly: TR-FRET dose response biochemical High Throughput Screening assay for agonists of the steroid receptor coactivator 3 (SRC-3) recruitment by the peroxisome proliferator-activated receptor gamma (PPAR gamma): non-selective agonists. [Related pubchem assays: 1301 (Confirmation screen.), 1048 (Primary screen.)]. It counts as functional.

Assay [4] deals with Peroxisome proliferator-activated receptor gamma/Nuclear receptor coactivator 2 (Homo sapiens, UniProt P37231). The assay can be described thus: TR-FRET dose response biochemical High Throughput Screening assay for agonists of the steroid receptor coactivator 2 (SRC-2) recruitment by the peroxisome proliferator-activated receptor gamma (PPAR gamma): non-selective agonists. [Related pubchem assays: 1297, 1032 ]. The class given is functional.

Assay [5] addresses T1, Polyadenylate-binding protein 1. The assay can be described thus: PABP1 MLLE–PAM2 binding inhibitor potency, dose response, biochemical, fluorescence polarization, FITC-PAM2 peptide (AID 602259). The class given is functional. To be noted: read-out: IC50_Mean.
In assay [6] the test system is HEK293. Put plainly: cells. The class given is functional, cell-based. To be noted: Homo sapiens.
Assay [7] has as its target Nucleotide-binding oligomerization domain-containing protein 2 (Homo sapiens, UniProt Q9HC29). The assay can be described thus: NOD2 signaling inhibitors, cell-based, luminescence, uHTS, HEK293 (AID 1566). It counts as functional.
The test system of assay [8] is HEK293. The assay can be described thus: cells. It counts as functional, cell-based. Particulars: Homo sapiens. The source holds these as a separate data set.
Assay [9] has as its system HEK293. Put plainly: NOD2 signaling inhibitors in MDP-stimulated cells, cell-based, uHTS, luminescence (AID 2001). The class given is functional. Particulars: Homo sapiens.
In assay [10] the test system is HEK293. The assay can be described thus: cells. Particulars: Homo sapiens. The class given is functional, cell-based. The source holds these as a separate data set.
In assay [11] the test system is HEK293. The assay can be described thus: NOD1 signaling inhibitors, primary screen, cell-based, luminescence, uHTS (AID 1578). It counts as functional. To be noted: Homo sapiens.
The target in another assay is Phospholipase A2 (Homo sapiens, UniProt P04054). It counts as functional.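 Further: confirmatory dose-response counterscreen on phospholipase A2, testing hits that came from an ultra-high-throughput screen for ATG4B inhibitors.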
In the next assay the target is T2, Cysteine protease ATG4B (Homo sapiens, UniProt Q9Y4P1).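 Further: Fluorescence-based dose-response confirmation assay measuring inhibition of ATG4B activity.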
T2 sequence (Q9Y4P1 whole entry): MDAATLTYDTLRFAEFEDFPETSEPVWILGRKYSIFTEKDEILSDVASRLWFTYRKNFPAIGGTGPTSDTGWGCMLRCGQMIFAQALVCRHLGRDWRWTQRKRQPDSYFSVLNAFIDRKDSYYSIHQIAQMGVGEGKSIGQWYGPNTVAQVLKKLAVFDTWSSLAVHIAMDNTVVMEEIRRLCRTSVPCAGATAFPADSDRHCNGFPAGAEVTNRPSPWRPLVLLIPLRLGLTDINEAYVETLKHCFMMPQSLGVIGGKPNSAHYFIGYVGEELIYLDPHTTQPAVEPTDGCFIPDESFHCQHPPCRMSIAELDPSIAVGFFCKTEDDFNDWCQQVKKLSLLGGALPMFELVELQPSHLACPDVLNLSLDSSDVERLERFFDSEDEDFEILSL
The class given is functional.

The target of another assay is Cytochrome P450 2C9 (Homo sapiens, UniProt P11712).
Assay [12] deals with T3, Short transient receptor potential channel 4 (Mus musculus, UniProt Q9QUQ5).
T3 sequence (Q9QUQ5 whole entry): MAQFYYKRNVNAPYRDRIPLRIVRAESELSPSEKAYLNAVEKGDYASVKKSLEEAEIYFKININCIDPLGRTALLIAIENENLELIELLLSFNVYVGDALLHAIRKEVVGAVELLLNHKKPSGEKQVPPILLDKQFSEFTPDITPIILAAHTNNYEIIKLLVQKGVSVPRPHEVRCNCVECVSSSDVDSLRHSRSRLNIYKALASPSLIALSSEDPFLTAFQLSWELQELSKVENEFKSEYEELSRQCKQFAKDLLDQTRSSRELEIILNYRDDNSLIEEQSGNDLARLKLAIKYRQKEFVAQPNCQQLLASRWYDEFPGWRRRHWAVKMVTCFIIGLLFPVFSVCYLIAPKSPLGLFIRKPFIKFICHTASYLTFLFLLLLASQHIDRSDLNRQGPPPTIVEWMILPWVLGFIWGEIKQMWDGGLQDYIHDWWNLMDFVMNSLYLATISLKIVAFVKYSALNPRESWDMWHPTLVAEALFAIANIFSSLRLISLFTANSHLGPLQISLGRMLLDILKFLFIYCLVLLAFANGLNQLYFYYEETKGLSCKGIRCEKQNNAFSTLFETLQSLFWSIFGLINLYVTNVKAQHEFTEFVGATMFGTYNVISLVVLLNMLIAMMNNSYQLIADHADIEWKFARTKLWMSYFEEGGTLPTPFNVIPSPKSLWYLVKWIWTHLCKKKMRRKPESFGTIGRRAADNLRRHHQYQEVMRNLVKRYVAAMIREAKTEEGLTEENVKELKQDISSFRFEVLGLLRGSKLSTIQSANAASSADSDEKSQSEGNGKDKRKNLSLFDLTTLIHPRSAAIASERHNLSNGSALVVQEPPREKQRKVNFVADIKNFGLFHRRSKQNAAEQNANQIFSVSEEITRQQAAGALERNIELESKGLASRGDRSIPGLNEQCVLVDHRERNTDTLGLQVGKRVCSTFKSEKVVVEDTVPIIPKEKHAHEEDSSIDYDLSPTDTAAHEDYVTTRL
Put plainly: mouse TRPC4 channel activators, dose response, cell-based, HEK293 TRPC4/mu-opioid, Fluo-4 calcium (AID 434937). It counts as functional.

Assay [13] addresses 5-hydroxytryptamine receptor 5A (Homo sapiens, UniProt P47898). The assay can be described thus: Counterscreen for agonists of OPRM1-OPRD1 heterodimerization: luminescence-based cell-based high throughput dose response assay to identify agonists of 5-hydroxytryptamine (serotonin) 5A receptor (HTR5A). [Related pubchem assays (depositor defined):AID504326, AID504355, AID504692, AID504904, AID504905]. The class given is functional. For orientation: Counterscreens check selectivity or assay interference.

The next assay concerns the target Cytochrome P450 2C19 (Homo sapiens, UniProt P33261). The assay can be described thus: Cytochrome panel assay with activity outcomes. Panel member name: p450-cyp2c19 Compounds with AC50 equal or less than 10 uM are considered active. The class given is functional. Particulars: read-out: AC50.
Assay [14] has as its target Delta-type opioid receptor (Homo sapiens, UniProt P41143). The assay can be described thus: Counterscreen for agonists of heterodimerization of the mu 1 (OPRM1) and delta 1 (OPRD1) opioid receptors: Luminescence-based cell-based high throughput dose response assay to identify agonists of OPRD1 homodimerization. [Related pubchem assays (depositor defined):AID504326, AID504355, AID504692, AID504904, AID504905]. It counts as functional.

A further assay concerns the target Mu-type opioid receptor (Homo sapiens, UniProt P35372). Put plainly: Counterscreen for agonists of heterodimerization of the mu 1 (OPRM1) and delta 1 (OPRD1) opioid receptors: Luminescence-based cell-based high throughput dose response assay to identify agonists of OPRM1 homodimerization. The class given is functional.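 Further: U2OS cells expressing OPRM1 and beta-arrestin as split beta-galactosidase partners.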
The target in a further assay is Cytochrome P450 2D6 (Homo sapiens, UniProt P10635).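 Further: CYP2D6 member of a cytochrome P450 panel assay.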
Cytochrome P450 2D6, sequence (P10635 whole entry): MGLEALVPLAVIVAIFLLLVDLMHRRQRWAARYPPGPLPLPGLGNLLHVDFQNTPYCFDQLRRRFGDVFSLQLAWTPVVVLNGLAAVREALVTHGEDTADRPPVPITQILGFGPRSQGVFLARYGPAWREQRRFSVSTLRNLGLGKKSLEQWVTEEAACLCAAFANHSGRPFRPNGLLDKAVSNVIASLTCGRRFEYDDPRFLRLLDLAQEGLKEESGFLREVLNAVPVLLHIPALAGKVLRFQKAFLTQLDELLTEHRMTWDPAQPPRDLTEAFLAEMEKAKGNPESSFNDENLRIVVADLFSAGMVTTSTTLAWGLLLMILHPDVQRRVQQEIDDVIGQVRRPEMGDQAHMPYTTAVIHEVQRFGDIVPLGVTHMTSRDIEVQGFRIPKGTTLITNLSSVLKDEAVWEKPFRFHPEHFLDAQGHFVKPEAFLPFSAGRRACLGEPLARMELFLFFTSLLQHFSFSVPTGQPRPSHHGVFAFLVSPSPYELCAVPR

T1 sequence (P11940 whole entry): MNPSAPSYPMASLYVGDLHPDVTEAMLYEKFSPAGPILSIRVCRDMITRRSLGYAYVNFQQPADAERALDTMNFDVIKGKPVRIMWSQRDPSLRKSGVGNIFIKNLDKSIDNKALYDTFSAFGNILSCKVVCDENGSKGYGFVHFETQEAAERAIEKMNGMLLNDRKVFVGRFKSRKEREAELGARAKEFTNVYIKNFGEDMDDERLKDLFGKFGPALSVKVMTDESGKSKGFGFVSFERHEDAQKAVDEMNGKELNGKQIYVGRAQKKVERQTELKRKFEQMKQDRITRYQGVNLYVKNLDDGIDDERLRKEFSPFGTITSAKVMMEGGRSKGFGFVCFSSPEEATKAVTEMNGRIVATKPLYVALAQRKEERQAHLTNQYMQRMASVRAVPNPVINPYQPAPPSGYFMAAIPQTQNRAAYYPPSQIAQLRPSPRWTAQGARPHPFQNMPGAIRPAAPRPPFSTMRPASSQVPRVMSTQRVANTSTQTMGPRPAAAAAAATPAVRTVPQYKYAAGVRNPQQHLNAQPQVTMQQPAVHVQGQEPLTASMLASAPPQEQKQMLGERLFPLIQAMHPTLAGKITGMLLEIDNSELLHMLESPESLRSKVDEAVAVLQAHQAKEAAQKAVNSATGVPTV
Peroxisome proliferator-activated receptor gamma/Nuclear receptor coactivator 1, sequence (P37231 whole entry): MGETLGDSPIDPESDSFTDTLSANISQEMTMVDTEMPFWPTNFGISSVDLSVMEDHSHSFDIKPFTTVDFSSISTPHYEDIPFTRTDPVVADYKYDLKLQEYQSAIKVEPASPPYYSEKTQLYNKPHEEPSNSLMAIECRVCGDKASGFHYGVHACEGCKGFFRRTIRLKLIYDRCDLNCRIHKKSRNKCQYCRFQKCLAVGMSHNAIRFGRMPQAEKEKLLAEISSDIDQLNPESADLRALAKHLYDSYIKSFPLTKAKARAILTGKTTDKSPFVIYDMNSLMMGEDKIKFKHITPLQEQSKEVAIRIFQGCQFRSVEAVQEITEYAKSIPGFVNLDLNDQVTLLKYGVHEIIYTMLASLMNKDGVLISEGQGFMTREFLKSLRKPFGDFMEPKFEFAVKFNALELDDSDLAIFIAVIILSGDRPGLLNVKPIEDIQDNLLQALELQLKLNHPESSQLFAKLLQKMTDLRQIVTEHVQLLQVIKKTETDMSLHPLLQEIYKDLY
Peroxisome proliferator-activated receptor gamma/Nuclear receptor coactivator 1, sequence (Q15788 whole entry, further chain): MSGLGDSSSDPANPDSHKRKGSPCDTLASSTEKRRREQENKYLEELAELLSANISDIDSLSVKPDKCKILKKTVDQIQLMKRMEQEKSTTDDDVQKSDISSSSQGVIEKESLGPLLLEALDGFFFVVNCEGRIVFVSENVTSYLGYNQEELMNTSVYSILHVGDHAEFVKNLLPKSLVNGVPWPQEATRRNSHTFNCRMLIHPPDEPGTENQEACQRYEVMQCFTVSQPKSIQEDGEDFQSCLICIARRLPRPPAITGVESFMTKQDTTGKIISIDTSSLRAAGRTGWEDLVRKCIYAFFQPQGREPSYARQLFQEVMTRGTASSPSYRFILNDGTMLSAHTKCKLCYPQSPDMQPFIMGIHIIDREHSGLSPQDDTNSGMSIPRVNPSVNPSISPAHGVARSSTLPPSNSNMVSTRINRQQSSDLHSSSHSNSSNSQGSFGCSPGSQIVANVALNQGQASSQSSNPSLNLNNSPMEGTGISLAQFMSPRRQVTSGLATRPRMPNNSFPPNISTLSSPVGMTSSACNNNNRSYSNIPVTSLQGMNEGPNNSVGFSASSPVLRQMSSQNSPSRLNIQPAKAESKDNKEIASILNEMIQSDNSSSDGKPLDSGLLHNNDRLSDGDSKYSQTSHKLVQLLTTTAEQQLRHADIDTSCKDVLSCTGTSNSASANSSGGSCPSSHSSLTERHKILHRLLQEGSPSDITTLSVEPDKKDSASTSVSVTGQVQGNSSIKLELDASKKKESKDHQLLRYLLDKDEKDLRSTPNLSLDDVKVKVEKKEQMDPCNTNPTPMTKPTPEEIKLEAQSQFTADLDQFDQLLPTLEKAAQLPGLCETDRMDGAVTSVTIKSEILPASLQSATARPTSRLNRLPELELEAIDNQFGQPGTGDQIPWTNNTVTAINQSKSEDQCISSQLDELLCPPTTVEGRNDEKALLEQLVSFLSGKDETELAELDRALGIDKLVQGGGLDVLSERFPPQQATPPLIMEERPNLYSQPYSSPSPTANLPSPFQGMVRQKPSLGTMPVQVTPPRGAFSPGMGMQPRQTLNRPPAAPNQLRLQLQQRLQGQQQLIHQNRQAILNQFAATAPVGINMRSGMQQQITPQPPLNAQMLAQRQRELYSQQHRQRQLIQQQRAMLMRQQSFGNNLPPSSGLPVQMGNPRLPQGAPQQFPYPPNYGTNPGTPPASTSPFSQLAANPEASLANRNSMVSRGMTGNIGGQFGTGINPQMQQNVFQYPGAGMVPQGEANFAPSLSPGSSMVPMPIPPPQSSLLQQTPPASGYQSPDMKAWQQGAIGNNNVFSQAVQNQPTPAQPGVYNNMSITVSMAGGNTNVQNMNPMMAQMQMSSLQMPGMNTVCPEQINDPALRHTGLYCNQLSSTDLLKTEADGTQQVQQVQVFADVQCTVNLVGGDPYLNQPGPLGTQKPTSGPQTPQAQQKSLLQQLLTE
Peroxisome proliferator-activated receptor gamma/Nuclear receptor coactivator 3, sequence (P37231 whole entry): as the sequence (P37231 whole entry) above
Peroxisome proliferator-activated receptor gamma/Nuclear receptor coactivator 3, sequence (Q9Y6Q9 whole entry, further chain): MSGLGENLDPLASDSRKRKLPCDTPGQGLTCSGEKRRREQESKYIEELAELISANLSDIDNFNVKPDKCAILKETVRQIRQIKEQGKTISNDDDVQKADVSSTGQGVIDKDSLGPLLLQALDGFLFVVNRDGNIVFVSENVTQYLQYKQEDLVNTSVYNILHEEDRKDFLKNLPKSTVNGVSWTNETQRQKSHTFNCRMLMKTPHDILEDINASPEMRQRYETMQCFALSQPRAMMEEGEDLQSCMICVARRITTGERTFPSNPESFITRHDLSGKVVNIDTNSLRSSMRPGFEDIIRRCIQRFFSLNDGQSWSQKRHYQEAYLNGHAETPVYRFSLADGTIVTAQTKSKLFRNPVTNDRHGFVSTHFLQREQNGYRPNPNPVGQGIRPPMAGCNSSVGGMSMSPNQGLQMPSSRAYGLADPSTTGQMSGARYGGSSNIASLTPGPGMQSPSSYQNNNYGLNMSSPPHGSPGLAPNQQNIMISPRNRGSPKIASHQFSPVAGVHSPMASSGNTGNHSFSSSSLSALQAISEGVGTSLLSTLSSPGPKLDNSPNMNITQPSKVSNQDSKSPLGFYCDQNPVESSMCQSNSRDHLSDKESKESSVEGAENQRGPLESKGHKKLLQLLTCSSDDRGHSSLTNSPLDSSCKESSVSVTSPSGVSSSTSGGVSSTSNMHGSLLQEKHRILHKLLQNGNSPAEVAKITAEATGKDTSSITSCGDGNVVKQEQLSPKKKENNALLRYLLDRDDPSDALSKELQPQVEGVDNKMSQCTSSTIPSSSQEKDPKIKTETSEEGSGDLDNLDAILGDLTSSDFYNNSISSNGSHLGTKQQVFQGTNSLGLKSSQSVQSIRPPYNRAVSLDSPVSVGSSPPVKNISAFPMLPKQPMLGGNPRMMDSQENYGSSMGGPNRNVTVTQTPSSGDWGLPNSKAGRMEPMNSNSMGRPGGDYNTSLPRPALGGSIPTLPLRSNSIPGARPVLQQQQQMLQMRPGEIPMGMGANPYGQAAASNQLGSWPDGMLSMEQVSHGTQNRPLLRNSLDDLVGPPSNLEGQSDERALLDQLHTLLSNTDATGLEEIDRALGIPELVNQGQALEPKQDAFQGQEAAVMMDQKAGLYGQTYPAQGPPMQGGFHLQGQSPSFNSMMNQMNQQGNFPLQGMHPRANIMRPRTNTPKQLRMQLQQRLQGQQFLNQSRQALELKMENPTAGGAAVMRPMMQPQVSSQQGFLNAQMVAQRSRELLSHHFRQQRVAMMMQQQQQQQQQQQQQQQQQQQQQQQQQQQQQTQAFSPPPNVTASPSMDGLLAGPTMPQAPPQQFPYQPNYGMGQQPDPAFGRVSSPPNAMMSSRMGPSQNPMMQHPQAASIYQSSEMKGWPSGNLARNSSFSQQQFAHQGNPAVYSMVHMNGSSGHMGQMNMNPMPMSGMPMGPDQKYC

Consider `CCOC(=O)c1sc(=S)n(-c2ccccc2Cl)c1SC`, for which the IC50 in assay [1] and in assay [5] was > 66 µM (inactive) each time. Besides, the EC50 in assay [2] was 10.7 µM (inactive); in assay [3], > 79.4 µM (not active); in assay [4], 12.5 µM (not active).
Take `Cc1ccc2nc(NC(=O)CSc3ncnc4c3oc3ccccc34)sc2c1`: the figures for the EC50 in assay [2], in assay [3] and in [4] were > 79.4 µM (inactive), > 79.4 µM (not active) and > 79.4 µM (not active), respectively.
Regarding `CCc1c(C)nc2ccc(Br)cc2c1SCCC#N`, the IC50 in the assay with HEK293 [6] is > 20 µM (inactive); in the assay with HEK293 [8], 1.29 µM (active); in the assay with HEK293 [9] it was 1.74 µM (active); in the assay with HEK293 [10], > 20 µM (inactive). Besides, the EC50 was 3.84 µM (active) in assay [7] and 3.05 µM (active) with HEK293 [11].
Regarding `O=C(c1ccc(-n2c(SCc3cc(F)ccc3F)nc3ccccc3c2=O)cc1)N1CCOCC1`, the IC50 is 11.7 µM (active) on Phospholipase A2 and 8.7 µM (active) at Cysteine protease ATG4B.
Consider `CN(C)C(CNC(=O)NC1CCCCC1)c1cccnc1` (stereo not drawn), for which the half-maximal activity concentration (AC50) on Cytochrome P450 2C9 is 0.398 µM (inconclusive); at Cytochrome P450 2C19, 25.1 µM (inconclusive); at Cytochrome P450 2D6 it was 31.6 µM (inconclusive). Moreover, the 50% effective concentration (EC50) in assay [12] was 0.06 µM (active); in assay [13], > 92.5 µM (inactive); in [14], > 92.5 µM (inactive); at Mu-type opioid receptor, > 92.5 µM (inactive).

A word on the EC50: it is the midpoint of the concentration-response curve. By AC50 is commonly meant the concentration at which the activity in the assay is half-maximal.
